Assay results: ChEMBL document CHEMBL4346735, “Discovery and pharmacological evaluation of indole derivatives as potent and selective RORγt inverse agonist for multiple autoimmune conditions” (Bioorg Med Chem Lett, 2019)
pIC50: −log10 of the molar value. Active and inactive are the calls of the source. The calls are words filed in the database; no cut-off is given here.

How the values were obtained:
Mus musculus [1] = organism: Mus musculus; experiment: Effect on non-RORgammat-dependent TNFA gene expression in BALB/c mouse splenocytes measured after 24 hrs in presence of anti-CD3/anti-CD28; assay type: functional
[2] = target: T1, Nuclear receptor ROR-gamma (Mus musculus) (UniProt P51450); experiment: Transrepression of RORgammat in Balb/c mouse splenocytes assessed as inhibition of anti-CD3/anti-CD28 stimulated IL-17 gene expression at 30 uM measured after 24 hrs in presence of anti-CD3/anti-CD28; assay type: cell-based
T1 sequence (whole entry): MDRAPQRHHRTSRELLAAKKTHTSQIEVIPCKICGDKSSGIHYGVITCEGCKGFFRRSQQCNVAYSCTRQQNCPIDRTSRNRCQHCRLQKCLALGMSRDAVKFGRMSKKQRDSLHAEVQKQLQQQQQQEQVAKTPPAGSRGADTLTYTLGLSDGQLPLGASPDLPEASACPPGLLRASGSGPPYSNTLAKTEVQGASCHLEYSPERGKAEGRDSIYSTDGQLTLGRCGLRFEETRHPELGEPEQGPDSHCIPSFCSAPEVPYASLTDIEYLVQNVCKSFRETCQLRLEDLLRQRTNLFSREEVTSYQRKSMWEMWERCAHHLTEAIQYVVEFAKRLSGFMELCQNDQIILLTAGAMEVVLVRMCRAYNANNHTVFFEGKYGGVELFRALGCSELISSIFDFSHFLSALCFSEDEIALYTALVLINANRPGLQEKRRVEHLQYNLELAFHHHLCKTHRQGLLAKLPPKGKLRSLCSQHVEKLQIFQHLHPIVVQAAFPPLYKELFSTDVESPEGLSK

Mus musculus [3] = experiment: Immunosuppressive activity in MOG (35 to 55 residues)/pertussis toxin-induced experimental allergic encephalomyelitis C57BL/6J mouse model assessed as delay in disease onset at 3 to 30 mg/kg, po bid; assay type: functional, organism-based
[4] = target: T1, Nuclear receptor ROR-gamma (Mus musculus); experiment: Transrepression of RORgammat in Balb/c mouse splenocytes assessed as inhibition of anti-CD3/anti-CD28 stimulated IL-17 gene expression at 3 uM measured after 24 hrs in presence of anti-CD3/anti-CD28; assay type: cell-based
Mus musculus [5] = experiment: Immunosuppressive activity in MOG (35 to 55 residues)/pertussis toxin-induced experimental allergic encephalomyelitis C57BL/6J mouse model assessed as decrease in ratio of Th17:Th1 at 3 to 30 mg/kg, po bid by intracellular staining method; assay type: functional, organism-based
Mus musculus [6] = experiment: Immunosuppressive activity in MOG (35 to 55 residues)/pertussis toxin-induced experimental allergic encephalomyelitis C57BL/6J mouse model assessed as IFN-gamma production of CNS infiltrating CD4+ Th1 cells at 3 to 30 mg/kg, po bid by intracellular staining method; assay type: functional, organism-based
Mus musculus [7] = organism: Mus musculus; experiment: Effect on non-RORgammat-dependent ll4 gene expression in BALB/c mouse splenocytes measured after 24 hrs in presence of anti-CD3/anti-CD28; assay type: functional
[8] = target: T1, Nuclear receptor ROR-gamma (Mus musculus); experiment: Transrepression of RORgammat in Balb/c mouse splenocytes assessed as inhibition of anti-CD3/anti-CD28 stimulated IL-17 gene expression at 0.3 uM measured after 24 hrs in presence of anti-CD3/anti-CD28; assay type: cell-based
Mus musculus [9] = organism: Mus musculus; experiment: Effect on non-RORgammat-dependent il6 gene expression in BALB/c mouse splenocytes measured after 24 hrs in presence of anti-CD3/anti-CD28; assay type: functional
Mus musculus [10] = organism: Mus musculus; experiment: Effect on non-RORgammat-dependent IFNG gene expression in BALB/c mouse splenocytes measured after 24 hrs in presence of anti-CD3/anti-CD28; assay type: functional
Mus musculus [11] = experiment: Immunosuppressive activity in MOG (35 to 55 residues)/pertussis toxin-induced experimental allergic encephalomyelitis C57BL/6J mouse model assessed as reduction in disease severity at 3 to 30 mg/kg, po bid measured at days 15-19; assay type: functional, organism-based
[12] = target: T2, Nuclear receptor ROR-gamma (Homo sapiens) (UniProt P51449); experiment: Transactivation of recombinant GAL4-DBD fused RORgammat LBD (unknown origin) expressed in HEK293T cells at 1 uM incubated for 18 to 24 hrs by dual-Glo luciferase assay relative to control; assay type: cell-based
T2 sequence (whole entry): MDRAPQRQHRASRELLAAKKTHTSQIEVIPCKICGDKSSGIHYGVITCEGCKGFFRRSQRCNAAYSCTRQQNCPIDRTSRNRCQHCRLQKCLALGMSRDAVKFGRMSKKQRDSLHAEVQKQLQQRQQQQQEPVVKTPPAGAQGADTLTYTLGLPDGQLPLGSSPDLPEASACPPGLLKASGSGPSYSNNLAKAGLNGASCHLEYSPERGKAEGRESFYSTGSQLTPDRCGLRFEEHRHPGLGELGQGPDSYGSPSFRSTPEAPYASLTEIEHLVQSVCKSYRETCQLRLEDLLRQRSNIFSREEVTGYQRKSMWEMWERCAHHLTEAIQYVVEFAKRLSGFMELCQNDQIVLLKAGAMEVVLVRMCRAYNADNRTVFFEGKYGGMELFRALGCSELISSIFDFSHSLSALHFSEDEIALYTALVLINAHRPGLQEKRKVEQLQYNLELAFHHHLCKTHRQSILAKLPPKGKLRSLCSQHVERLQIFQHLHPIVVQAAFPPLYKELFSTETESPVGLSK

[13] = Metabolic stability in mouse liver microsomes assessed as parent compound remaining at 1 uM preincubated for 5 mins followed by NADPH addition after 30 mins by LC-MS/MS analysis; assay type: ADME, Microsome; conditions: read-out: Stability
[14] = target: T3, Nuclear receptor ROR-gamma (Homo sapiens, UniProt P51449); experiment: Inverse agonist activity at GST-tagged RORgammat LBD (unknown origin) using fluorescein-D22 co-activator peptide as substrate incubated for 1 hr by TR-FRET assay
T3 sequence (P51449 whole entry): T2 sequence (whole entry)

[15] = target: T4, Nuclear receptor ROR-gamma (Mus musculus, UniProt P51450); experiment: Inverse agonist activity at RORgammat in mouse splenocytes derived naive T cells assessed as suppression of T cell differentiation to Th17 cells by measuring IL-17 secretion in presence of […]/anti-IFNgamma/TGFbeta/IL-6 for 6 days by ELISA; assay type: cell-based
T4 sequence (P51450 whole entry): T1 sequence (whole entry)

[16] = Drug metabolism in human pooled liver microsomes assessed as oxidation metabolic rate at 1 uM preincubated for 5 mins followed by NADPH addition after 30 mins by LC-MS/MS analysis; assay type: ADME, Microsome; conditions: 0.5 h
[17] = Half life in Balb/c mouse at 3 mg/kg, iv administered as single dose by LC-MS/MS analysis; assay type: ADME, organism-based; conditions: in vivo
[18] = Drug metabolism in mouse liver microsomes assessed as oxidation metabolic rate at 1 uM preincubated for 5 mins followed by NADPH addition after 30 mins by LC-MS/MS analysis; assay type: ADME, Microsome; conditions: 0.5 h
[19] = target: T3, Nuclear receptor ROR-gamma; experiment: Transactivation of recombinant GAL4-DBD fused RORgammat LBD (unknown origin) expressed in HEK293T cells incubated for 18 to 24 hrs by dual-Glo luciferase assay; assay type: cell-based
[20] = Drug metabolism in rat liver microsomes assessed as oxidation metabolic rate at 1 uM preincubated for 5 mins followed by NADPH addition after 30 mins by LC-MS/MS analysis; assay type: ADME, Microsome; conditions: 0.5 h
[21] = AUC (0 to t) in Balb/c mouse at 3 mg/kg, iv administered as single dose by LC-MS/MS analysis; assay type: ADME, organism-based; conditions: in vivo
[22] = Oral bioavailability in Balb/c mouse at 10 mg/kg administered via gavage by LC-MS/MS analysis; assay type: ADME, organism-based; conditions: in vivo
[23] = Clearance in Balb/c mouse at 3 mg/kg, iv administered as single dose by LC-MS/MS analysis; assay type: ADME, organism-based; conditions: in vivo

SMILES: O=C(O)c1ccc(-n2cc(C(=O)c3c(Cl)cccc3Cl)c3cccc(F)c32)cc1
- Activity (Mus musculus [1]): inactive
- inhibition [2]: 76%
- Activity (Mus musculus [3]): Active
- inhibition [4]: 52%
- inhibition (Mus musculus [5]): Active
- Activity (Mus musculus [6]): Active
- Activity (Mus musculus [7]): inactive
- inhibition [8]: 2%
- Activity (Mus musculus [9]): inactive
- Activity (Mus musculus [10]): inactive
- Activity (Mus musculus [11]): Active

SMILES: O=C(O)c1ccc(-n2cc(C(=O)c3c(Cl)cccc3Cl)c3ccncc32)cc1
- inhibition [12]: 27%
- remaining at 0.5 h, 1 µM [13]: 100%

SMILES: O=C(O)c1ccc(-c2nn(C(=O)c3c(Cl)cccc3Cl)c3ccccc23)cc1
- pIC50 [14]: 8.70
- inhibition [2]: 52%
- pIC50 [15]: 7.37
- Drug metabolism [16]: 0.04 nmol/min/mg
- half-life [17]: 1.12 h
- Drug metabolism [18]: < 0.04 nmol/min/mg
- pIC50 [19]: 7.70
- Drug metabolism [20]: 0.19 nmol/min/mg
- inhibition [4]: 48%
- inhibition [8]: 15%
- AUC(0-t) [21]: 13.2 µM·h
- bioavailability [22]: 42%
- clearance [23]: 12.9 mL/min/kg
